Source: US20090042951A1, “Blood Pressure Reduction in Salt-Sensitive Hypertension” (priority 2004, published 2009)

Columns and labels:
[1] = system: Dahl salt-sensitive (SS/Jr) rats; experiment: Telemetric arterial blood pressure monitoring in Dahl salt-sensitive rats on high salt diet; assay type: in vivo, rat; details: for anti-hypertensive activity: found by the methods described herein
Description: (§1) Male Dahl salt-resistant (SR/Jr) rats (250-300 gm, Harlan, Indianapolis, Ind.) were used as controls. Non-salt-sensitive, spontaneously hypertensive rats (SHR) were also employed in some experiments. Each rat was housed individually with a 12 hour light/12 hour dark cycle. The animal use protocols were approved by the Chicago—West Side Veterans Administration Institutional Animal Care and Use Committee.
(§2) Arterial blood pressures in unrestrained rats were monitored using a model TA11PA-C20 (Data Science, International, St. Paul, Minn.) implantable telemetric blood pressure monitoring system. The rats were anesthetized using an intraperitoneal injection (50 mg/kg i.p.) of nembutol sodium solution prior to implantation of the monitor. The radio-transmitter catheter was inserted via a midline abdominal incision into the left femoral artery and sutured in place after the tip of the catheter was advanced into the proximal aorta. The catheter was tunneled under the skin and the body of the transmitter was positioned in a subcutaneous pocket near the right flank of the rat. Data acquisition began after normal diurnal blood pressure variability had been reestablished, typically about seven days after surgery. Continuous measurements of pulsatile central aortic blood pressure were recorded by a receiver placed under each rat's cage.
A baseline arterial blood pressure was established for each rat from continuous measurements made over a two day period prior to the start of an experiment. […] Monitoring continued for four additional days. […] The p-value in both cases is less than 0.05.

[2] = system: spontaneously hypertensive rats (SHR); experiment: Telemetric arterial blood pressure monitoring in spontaneously hypertensive rats on 8% NaCl diet; assay type: in vivo, rat; details: single IP injection 10 mg/kg, continuous telemetric recording
Description: as §1
as §2, with “cage. […]” for “cage.”

dogs = details: administration of rolipram, increased cAMP; cited from earlier work

Structure (SMILES) | anti-hypertensive activity [1] | duration of drop in blood pressure ([1]; Dahl SS/Jr rat, 8% NaCl diet, single IP injection 10 mg/kg) [days] | effect on arterial blood pressure ([1]; Dahl SS/Jr rat, 8% NaCl diet, single IP injection 10 mg/kg, continuous telemetric recording) | effect on arterial blood pressure [2] | renal vascular resistance (dogs) | secretion of electrolytes (dogs)
COc1ccc(C(=O)Nc2c(Cl)cncc2Cl)cc1OC1CCCC1 [RP73401] | exhibit anti-hypertensive activity |  |  |  |  | 
COc1ccc(C2CNC(=O)C2)cc1OC1CCCC1 (stereo not drawn) [rolipram, Rolipram] | exhibit anti-hypertensive activity | > 2 | very significant and prolonged (>2 days) drop in blood pressure | brief, shallow dip in blood pressure immediately after rolipram injection followed by a gradual decline and recovery of blood pressure | reduces renal vascular resistance | promotes secretion of electrolytes
CCn1c(=O)c2ccccc2n(-c2cccc([N+](=O)[O-])c2)c1=O [TVX2706] | exhibit anti-hypertensive activity |  |  |  |  | 
O=c1c2cccnc2n(-c2cccc([N+](=O)[O-])c2)c(=O)n1Cc1ccncc1 [RS25344] | exhibit anti-hypertensive activity |  |  |  |  | 
